Source: ChEMBL document CHEMBL4813920, “Metronidazole-conjugates: A comprehensive review of recent developments towards synthesis and medicinal perspective” (Eur J Med Chem, 2021)
≈ marks a conversion by molar mass, not a printed value.

Legend:
[1] = target: T1, Pancreatic alpha-amylase (Sus scrofa, UniProt P00690); experiment: Inhibition of porcine pancreatic alpha-amylase using 1% starch as substrate preincubated for 10 mins followed by substrate addition and measured after 10 mins by absorbance method
T1 sequence (P00690 whole entry): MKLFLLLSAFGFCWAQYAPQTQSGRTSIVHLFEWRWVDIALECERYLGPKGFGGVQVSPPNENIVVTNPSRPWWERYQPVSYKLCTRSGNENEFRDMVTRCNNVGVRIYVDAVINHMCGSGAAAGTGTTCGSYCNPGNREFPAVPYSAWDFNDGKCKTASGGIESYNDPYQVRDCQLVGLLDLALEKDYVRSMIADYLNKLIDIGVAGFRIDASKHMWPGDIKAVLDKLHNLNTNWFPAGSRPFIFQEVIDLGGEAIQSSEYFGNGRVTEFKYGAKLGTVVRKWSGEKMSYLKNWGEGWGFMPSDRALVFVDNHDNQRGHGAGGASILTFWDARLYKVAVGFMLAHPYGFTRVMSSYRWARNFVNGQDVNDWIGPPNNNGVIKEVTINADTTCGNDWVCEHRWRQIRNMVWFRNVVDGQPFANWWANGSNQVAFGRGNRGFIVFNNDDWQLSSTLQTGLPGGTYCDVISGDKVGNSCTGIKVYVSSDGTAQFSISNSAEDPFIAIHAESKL

[2] = test system: Candida albicans; experiment: Antifungal activity against Candida albicans ATCC 10231 incubated for 24 hrs by broth microdilution method; assay type: functional
[3] = test system: Staphylococcus aureus; experiment: Antibacterial activity against Staphylococcus aureus ATCC 6538P incubated for 24 hrs by broth microdilution method; assay type: functional
[4] = test system: Escherichia coli; experiment: Antibacterial activity against Escherichia coli ATCC 8739 incubated for 24 hrs by broth microdilution method; assay type: functional
[5] = test system: Entamoeba histolytica; experiment: Antiamoebic activity against Entamoeba histolytica HK9 ATCC 30015 incubated for 72 hrs by trypan blue staining based assay; assay type: functional, organism-based; conditions: ATCC 30015, 72 h
[6] = test system: Entamoeba histolytica; experiment: Antiamoebic activity against Entamoeba histolytica HK9 ATCC 30015 by trypan blue staining based assay; assay type: functional, organism-based
[7] = test system: Giardia intestinalis; experiment: Antigiardial activity against Giardia intestinalis WB ATCC 30957 by trypan blue staining based assay; assay type: functional, organism-based; conditions: Giardia duodenalis
[8] = test system: Clostridium sporogenes; experiment: Antimicrobial activity against Clostridium sporogenes ATCC 19404 incubated for 24 hrs by broth microdilution method; assay type: functional
[9] = test system: Bacillus spizizenii; experiment: Antibacterial activity against Bacillus subtilis ATCC 6633 incubated for 24 hrs by two fold serial dilution method; assay type: functional
[10] = test system: Escherichia coli; experiment: Antibacterial activity against Escherichia coli ATCC 35218 incubated for 24 hrs by two fold serial dilution method; assay type: functional
[11] = test system: Pseudomonas aeruginosa; experiment: Antibacterial activity against Pseudomonas aeruginosa ATCC 13525 incubated for 24 hrs by two fold serial dilution method; assay type: functional
[12] = test system: Staphylococcus aureus; experiment: Antibacterial activity against Staphylococcus aureus ATCC 6538 incubated for 24 hrs by two fold serial dilution method; assay type: functional

Structure (SMILES): Cc1ncc([N+](=O)[O-])n1CCOCc1ccccc1
- IC50 [1]: < 2.98 µM

Structure (SMILES): Cc1ccc(/C=N/CCn2c([N+](=O)[O-])cnc2C)cc1
- MIC [2]: 170 µM (≈ 46.3 µg/mL)

Structure (SMILES): COc1ccc(/C=N/CCn2c([N+](=O)[O-])cnc2C)cc1
- MIC [2]: 170 µM (≈ 49 µg/mL)

Structure (SMILES): Cc1ncc([N+](=O)[O-])n1CC/N=C/c1ccc([N+](=O)[O-])cc1
- MIC [2]: 170 µM (≈ 51.6 µg/mL)

Structure (SMILES): Cc1ncc([N+](=O)[O-])n1CC/N=C/c1ccccc1O
- MIC [2]: 170 µM (≈ 46.6 µg/mL)
- MIC [3]: 2000 µM (≈ 549 µg/mL)
- MIC [4]: 2240 µM (≈ 614 µg/mL)

Structure (SMILES): Cc1ncc([N+](=O)[O-])n1CC/N=C/c1cc(Cl)ccc1O
- MIC [2]: 170 µM (≈ 52.5 µg/mL)
- MIC [3]: 760 µM (≈ 235 µg/mL)
- MIC [4]: 760 µM (≈ 235 µg/mL)

Structure (SMILES): Cc1ncc([N+](=O)[O-])n1CC/N=C/c1ccccc1Cl
- MIC [2]: 170 µM (≈ 49.8 µg/mL)

Structure (SMILES): Cc1ncc([N+](=O)[O-])n1CC/N=C/c1cccs1
- MIC [2]: 170 µM (≈ 44.9 µg/mL)

Structure (SMILES): Cc1ncc([N+](=O)[O-])n1CC/N=C/c1ccc(F)cc1
- MIC [2]: 170 µM (≈ 47 µg/mL)

Structure (SMILES): Cc1ncc([N+](=O)[O-])n1CCNC(=O)/C=C/c1ccc([N+](=O)[O-])o1
- IC50 [5]: 5.32 µM

Structure (SMILES): Cc1ncc([N+](=O)[O-])n1CCN1CCN(c2ccnc3cc(Cl)ccc23)CC1
- IC50 [5]: 0.96 µM

Structure (SMILES): COc1cc(COCCn2c([N+](=O)[O-])cnc2C)cc(OC)c1
- IC50 [1]: < 2.98 µM

Structure (SMILES): CCOC(=O)[C@H](CC(=O)O)NC(=O)Cn1c([N+](=O)[O-])cnc1C
- IC50 [6]: 2.21 µM
- IC50 [7]: 2.26 µM

Structure (SMILES): CCOC(=O)C(CCCCNC(=O)C(C)n1c([N+](=O)[O-])cnc1C)NC(=O)Cn1c([N+](=O)[O-])cnc1C (stereo not drawn)
- IC50 [6]: 3.95 µM
- IC50 [7]: 3.84 µM

Structure (SMILES): Cc1ncc([N+](=O)[O-])n1CCSc1nnc(-c2ccncc2)n1-c1cccc2ccccc12
- MIC [8]: 17.1 µM (≈ 7.82 µg/mL)

Structure (SMILES): COc1ccc(COCCn2c([N+](=O)[O-])cnc2C)cc1
- IC50 [1]: < 2.98 µM

Structure (SMILES): Cn1c(-c2ccncc2)n[nH]c1=S
- IC50 [6]: 1.37 µM
- IC50 [7]: 1.56 µM

Structure (SMILES): Cc1ccc(COCCn2c([N+](=O)[O-])cnc2C)cc1
- IC50 [1]: < 2.98 µM

Structure (SMILES): Cc1ccccc1COCCn1c([N+](=O)[O-])cnc1C
- IC50 [1]: < 2.98 µM

Structure (SMILES): Cc1ncc([N+](=O)[O-])n1CCOCc1cccc([N+](=O)[O-])c1
- IC50 [1]: < 2.98 µM

Structure (SMILES): Cc1ncc([N+](=O)[O-])n1CCOCc1ccc(Cl)cc1
- IC50 [1]: < 2.98 µM

Structure (SMILES): COc1ccc(-n2c(SCCn3c([N+](=O)[O-])cnc3C)nnc2-c2cccnc2)cc1
- IC50 [6]: 0.48 µM
- MIC [8]: 17.8 µM (≈ 7.79 µg/mL)
- IC50 [7]: 1.78 µM

Structure (SMILES): Cc1cccc(COCCn2c([N+](=O)[O-])cnc2C)c1
- IC50 [1]: 0.38 µM

Structure (SMILES): Cc1ncc([N+](=O)[O-])n1CCOCc1ccc2ccccc2c1
- IC50 [1]: 1.66 µM

Structure (SMILES): Cc1ncc([N+](=O)[O-])n1CCOCc1ccc(F)cc1
- IC50 [1]: < 2.98 µM

Structure (SMILES): Cc1ncc([N+](=O)[O-])n1CCOCc1ccc[nH]1
- IC50 [1]: < 2.98 µM

Structure (SMILES): Cc1ncc([N+](=O)[O-])n1CCOCc1ccncc1
- IC50 [1]: < 2.98 µM

Structure (SMILES): Cc1ncc([N+](=O)[O-])n1CCOCc1cccc(Cl)c1
- IC50 [1]: < 2.98 µM

Structure (SMILES): Cc1ncc([N+](=O)[O-])n1CCOCc1ccc(C#N)cc1
- IC50 [1]: < 2.98 µM

Structure (SMILES): COc1cccc(COCCn2c([N+](=O)[O-])cnc2C)c1
- IC50 [1]: < 2.98 µM

Structure (SMILES): Cc1ncc([N+](=O)[O-])n1CCOCc1ccccc1Cl
- IC50 [1]: < 2.98 µM

Structure (SMILES): Cc1ncc([N+](=O)[O-])n1CCOCc1ccc(F)cc1Br
- IC50 [1]: < 2.98 µM

Structure (SMILES): Cc1ncc([N+](=O)[O-])n1CCOCc1ccccc1Br
- IC50 [1]: < 2.98 µM

Structure (SMILES): Cc1ncc([N+](=O)[O-])n1CCOCc1ccc(Br)cc1
- IC50 [1]: < 2.98 µM

Structure (SMILES): Cc1cc(COCCn2c([N+](=O)[O-])cnc2C)ccc1[N+](=O)[O-]
- IC50 [1]: < 2.98 µM

Structure (SMILES): Cc1ncc([N+](=O)[O-])n1CCn1c(-c2ccncc2)nn(-c2ccccc2)c1=S
- IC50 [6]: 3.27 µM
- MIC [8]: 29.9 µM (≈ 12.2 µg/mL)
- IC50 [7]: 0.76 µM

Structure (SMILES): CC1(C)S[C@@H]2[C@H](NC(=O)[C@H](N)c3ccccc3)C(=O)N2[C@H]1C(=O)O [AMPICILLIN]
- MIC [3]: 0.036 µM (≈ 0.0126 µg/mL)
- MIC [4]: 2.3 µM (≈ 0.804 µg/mL)

Structure (SMILES): NC[C@H]1O[C@H](O[C@H]2[C@H](O)[C@@H](O[C@H]3O[C@H](CO)[C@@H](O)[C@H](N)[C@H]3O)[C@H](N)C[C@@H]2N)[C@H](N)[C@@H](O)[C@@H]1O [BEKANAMYCIN]
- MIC [9]: 0.78 µg/mL (≈ 1.61 µM)
- MIC [10]: 1.56 µg/mL (≈ 3.23 µM)
- MIC [11]: 3.13 µg/mL (≈ 6.47 µM)
- MIC [12]: 1.56 µg/mL (≈ 3.23 µM)
